The values that follow come from ChEMBL document CHEMBL1201862, “PubChem BioAssay data set” (2004).

Some test systems named below: Hs-578T; OVCAR-3; HT-29; UACC-62; M14; Malme-3M; 786-0; KM12; OVCAR-4; U-251; BT-549; IGROV-1; HCT-116; LOX IMVI; UO-31; A549; RPMI-8226; SR; SW-620; SNB-75.
Experiment in all cases: NCI anticancer screen, dose series, 48 h

Values joined by “and” are separate entries in the source; they are usually repeats but may differ in a detail not shown here. Equal entries are not always repeated.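 48-hour exposure; five concentrations; linearly interpolated endpoints. At the GI50, growth is halved.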 Active and inactive are the calls of the source. Rule as the data show it: active = GI50 up to about 1.1 µM and inactive = higher.

Regarding `C=CC(CCc1ccc(C(=O)OCC)cc1)c1c(N)nc(N)[nH]c1=O` (stereo unspecified), the GI50 was > 100 µM (inactive) with Hs-578T; 72.1 µM (inactive) in the experiment on OVCAR-3; 72.8 µM (inactive) in the experiment with HT-29; > 100 µM (inactive) in the experiment on UACC-62; > 100 µM (inactive) in the experiment with M14; 89.9 µM (inactive) in the experiment with Malme-3M. Further, the GI50 with 786-0 is > 100 µM (inactive); in the experiment on KM12 it was > 100 µM (inactive); in the experiment with OVCAR-4, 27.2 µM (inactive); with U-251, > 100 µM (inactive); in the experiment with BT-549 it was > 100 µM (inactive); in the experiment on IGROV-1, > 100 µM (inactive). The GI50 was > 100 µM (inactive) in the experiment with HCT-116; 45.3 µM (inactive) in the experiment with LOX IMVI; 43.7 µM (inactive) in the experiment with UO-31; > 100 µM (inactive) in the experiment on A549; 44.8 µM (inactive) in the experiment with RPMI-8226; > 100 µM (inactive) in the experiment on SR. In addition, the GI50 was > 100 µM (inactive) with SW-620 and 47.8 µM (inactive) with SNB-75.

Regarding `CSCCCNC(=O)c1csc([C@@H](CSC)NC(=O)CCNC(=O)[C@@H](NC(=O)OCC(Br)(Br)Br)C(C)O)n1` (stereo partly specified), the GI50 in the experiment with Hs-578T, in the experiment on OVCAR-3, in the experiment on HT-29, with UACC-62, in the experiment on M14 and in the experiment on Malme-3M was > 100 µM (inactive) throughout. The GI50 with 786-0, with KM12, in the experiment on OVCAR-4, with U-251, in the experiment on BT-549 and in the experiment with IGROV-1 was > 100 µM (inactive) in each case. The GI50 in the experiment on HCT-116, in the experiment on LOX IMVI, in the experiment on UO-31, in the experiment with A549, in the experiment with SR and with SW-620 was > 100 µM (inactive) in each case. The GI50 with SNB-75 is > 100 µM (inactive).

On to `COc1ccc(NC(=O)CC(=O)N2N=C(c3ccccc3)C(/N=N/c3ccc(S(=O)(=O)CCOS(=O)(=O)O)cc3)C2=O)cc1` (stereo unspecified), for which the GI50 in the experiment on Hs-578T, in the experiment with OVCAR-3, with HT-29, with UACC-62, with M14 and in the experiment on Malme-3M was > 100 µM (inactive) each time. In addition, the GI50 with 786-0, in the experiment with KM12, with U-251, in the experiment with BT-549, in the experiment on IGROV-1 and with HCT-116 was > 100 µM (inactive) in each case. For the same compound, the GI50 in the experiment on LOX IMVI, with UO-31, with A549, in the experiment on RPMI-8226, in the experiment with SR and in the experiment on SW-620 was > 100 µM (inactive) each time. In addition, the GI50 with SNB-75 was > 100 µM (inactive).

As to `CC(=O)C(C)C(=O)N1C(=O)N(C)C2(C)N(C)C(=O)NC12C` (stereo unspecified), the GI50 with Hs-578T, in the experiment with OVCAR-3, in the experiment on HT-29, in the experiment with UACC-62, in the experiment with M14 and in the experiment on Malme-3M was > 100 µM (inactive) throughout. Moreover, the GI50 in the experiment on 786-0, in the experiment on KM12, in the experiment with OVCAR-4, with U-251, in the experiment with BT-549 and in the experiment on IGROV-1 was > 100 µM (inactive) throughout. Moreover, the GI50 in the experiment on HCT-116, with UO-31, in the experiment with A549, in the experiment with RPMI-8226, in the experiment with SR and in the experiment on SNB-75 was > 100 µM (inactive) in each case.

Regarding `Clc1sc(Cl)c2c1[C@@H](Cl)C[C@@H]2Br`, the GI50 in the experiment with Hs-578T was 65.8 µM (inactive); in the experiment with HT-29, > 100 µM (inactive); with UACC-62 it was 68.2 µM (inactive); with M14, > 100 µM (inactive); in the experiment on Malme-3M it was 22.8 µM (inactive); with 786-0, > 100 µM (inactive). Further, the GI50 was 90.6 µM (inactive) in the experiment with KM12; > 100 µM (inactive) with OVCAR-4; > 100 µM (inactive) with U-251; > 100 µM (inactive) with BT-549; 72.9 µM (inactive) in the experiment on IGROV-1; > 100 µM (inactive) in the experiment on HCT-116. The GI50 was 33.8 µM (inactive) in the experiment on LOX IMVI; > 100 µM (inactive) in the experiment on UO-31; 83.8 µM (inactive) in the experiment on A549; 18.8 µM (inactive) with SR; 45.6 µM (inactive) in the experiment with SW-620; > 100 µM (inactive) in the experiment with SNB-75.

For the compound `O=c1c(Cl)c(Cl)cnn1-c1ccccc1`, the GI50 in the experiment on Hs-578T was 1.54 µM (inactive) and 2.56 µM (inactive); with OVCAR-3 it was 2.03 µM (inactive) and 1.99 µM (inactive); in the experiment on UACC-62 it was 1.67 µM (inactive) and 2.21 µM (inactive); with M14, 1.74 µM (inactive) and 1.76 µM (inactive); in the experiment with Malme-3M it was 3.46 µM (inactive) and 3.02 µM (inactive); with 786-0, 5.64 µM (inactive) and 4.79 µM (inactive). Further, the GI50 in the experiment on KM12 is 8.91 µM (inactive) and 7.94 µM (inactive); with OVCAR-4 it was 2.19 µM (inactive) and 1.53 µM (inactive); in the experiment on U-251, 3.51 µM (inactive) and 1.79 µM (inactive); with BT-549 it was 1.8 µM (inactive) and 1.73 µM (inactive); with HCT-116, 2.29 µM (inactive) and 1.75 µM (inactive); with LOX IMVI it was 1.8 µM (inactive) and 1.19 µM (inactive). The GI50 was 4.18 µM (inactive) and 3.56 µM (inactive) in the experiment on UO-31; 20.3 µM (inactive) and 10.8 µM (inactive) in the experiment with A549; 5.92 µM (inactive) and 7.26 µM (inactive) in the experiment with RPMI-8226; 2.14 µM (inactive) and 1.61 µM (inactive) with SR.

Regarding `O=C1Nc2ccccc2/C1=C\c1c(Cl)[nH]c2ccccc12`, the GI50 in the experiment with Hs-578T was 0.409 µM (active); in the experiment on OVCAR-3 it was 0.592 µM (active); in the experiment on HT-29, 0.222 µM (active); in the experiment with UACC-62, 1.05 µM (active); in the experiment with M14, 0.873 µM (active); with Malme-3M, 0.631 µM (active). Also, the GI50 in the experiment on 786-0 was 0.935 µM (active); in the experiment with KM12 it was 0.397 µM (active); with U-251, 0.518 µM (active); in the experiment on BT-549, 0.832 µM (active); in the experiment with IGROV-1, 0.139 µM (active); in the experiment on HCT-116, 0.745 µM (active). The GI50 in the experiment with LOX IMVI is 1.07 µM (active); with UO-31 it was 1.66 µM (inactive); with A549 it was 1.23 µM (inactive); in the experiment on RPMI-8226 it was 0.589 µM (active); in the experiment with SR, 0.292 µM (active); in the experiment on SW-620, 0.516 µM (active).

For `Cc1ccc(/C=C2\CCS(=O)(=O)c3ccccc3C2=O)cc1`, the GI50 in the experiment on Hs-578T is 37.4 µM (inactive); in the experiment with OVCAR-3, 17.2 µM (inactive); with HT-29 it was 17 µM (inactive); in the experiment with UACC-62, 17.3 µM (inactive); with M14, 26.1 µM (inactive); in the experiment on 786-0, 16.3 µM (inactive). Moreover, the GI50 in the experiment on KM12 was 15.5 µM (inactive); with OVCAR-4 it was 15 µM (inactive); in the experiment on U-251, 14 µM (inactive); in the experiment on BT-549, 17.5 µM (inactive); in the experiment on IGROV-1, 11.4 µM (inactive); in the experiment with HCT-116, 13.1 µM (inactive). The GI50 in the experiment on LOX IMVI was 15.2 µM (inactive); in the experiment on UO-31, 12.6 µM (inactive); in the experiment with A549 it was 35.6 µM (inactive); in the experiment with RPMI-8226, 31.4 µM (inactive); in the experiment on SR, 10.6 µM (inactive); in the experiment with SW-620, 18.1 µM (inactive). For the same compound, the GI50 with SNB-75 is 16.7 µM (inactive).

On to `C=CCN(c1cc(OC)c2c(c1[N+](=O)[O-])C(C)(SC)C(=O)N2)S(C)(=O)=O` (stereo unspecified), for which the GI50 with Hs-578T was 55.5 µM (inactive); with HT-29 it was > 100 µM (inactive); in the experiment on UACC-62 it was 71.4 µM (inactive); in the experiment with Malme-3M, 97.5 µM (inactive); in the experiment on 786-0, 87.7 µM (inactive); in the experiment with KM12, > 100 µM (inactive). In addition, the GI50 with OVCAR-4 was 47.8 µM (inactive); in the experiment on U-251, > 100 µM (inactive); in the experiment on BT-549 it was > 100 µM (inactive); in the experiment with IGROV-1, > 100 µM (inactive); in the experiment with HCT-116, > 100 µM (inactive); in the experiment on LOX IMVI it was > 100 µM (inactive). Also, the GI50 is > 100 µM (inactive) in the experiment on UO-31; > 100 µM (inactive) in the experiment on A549; 94 µM (inactive) in the experiment with RPMI-8226; 31.8 µM (inactive) with SR; > 100 µM (inactive) with SW-620; 91.6 µM (inactive) in the experiment on SNB-75.

`Cn1c(CCC2(C)Cc3ccccc3C(=O)O2)cc2ccccc2c1=O` (stereo unspecified): the GI50 is 37.7 µM (inactive) in the experiment on Hs-578T; 21 µM (inactive) with OVCAR-3; > 10 µM (inactive) in the experiment on UACC-62; 16.4 µM (inactive) in the experiment with M14; 35.2 µM (inactive) with Malme-3M; 96.6 µM (inactive) in the experiment on 786-0. Further, the GI50 with KM12 is 4.66 µM (inactive); in the experiment with OVCAR-4, 36 µM (inactive); in the experiment on U-251 it was 45.5 µM (inactive); in the experiment with BT-549, 21.8 µM (inactive); in the experiment with IGROV-1 it was 27.3 µM (inactive); in the experiment on UO-31 it was 15.7 µM (inactive). The GI50 in the experiment with A549 was 31.2 µM (inactive); in the experiment on RPMI-8226, 17.3 µM (inactive); with SR, 34.4 µM (inactive); with SNB-75 it was 22.4 µM (inactive).
